Experimental data taken from patent publication US4347319A, “Microbiological epoxidation process” (priority 1980, dated 1982).
Like-named read-outs stand apart in the source and are kept apart here. Values belong to the molecule of their own block, whether it stands above or below them.

Tests used:
[1] = tested on: cell extract of Candida utilis ATCC 26,387; experiment: Oxidation of secondary alcohols to methylketone by cell extracts of yeasts; format: biochemical; details: methanol-grown; cell extract + NAD^+; sec. alcohol to methyl ketone; gas chromatography
[2] = tested on: Hansenula polymorpha ATCC 26012; experiment: Oxidation of sec-alcohols to ketones by cell suspensions of yeasts; format: cell-based; details: sec-alcohol to methyl ketone
[3] = tested on: Pichia sp. NRRL-Y-11328; experiment: as above; format: cell-based; details: sec-alcohol to methyl ketone
[4] = tested on: cell extract of Torulopsis sp. strain A1 NRRL-Y-11,419; experiment: Oxidation of secondary alcohols to methylketone by cell extracts of yeasts; format: biochemical; details: methanol-grown; cell extract + NAD^+; sec. alcohol to methyl ketone; gas chromatography
[5] = tested on: Candida utilis ATCC 26387; experiment: Oxidation of sec-alcohols to ketones by cell suspensions of yeasts; format: cell-based; details: sec-alcohol to methyl ketone
[6] = tested on: cell extract of Hansenula polymorpha ATCC 26,012; experiment: Oxidation of secondary alcohols to methylketone by cell extracts of yeasts; format: biochemical; details: methanol-grown; cell extract + NAD^+; sec. alcohol to methyl ketone; gas chromatography
[7] = tested on: purified secondary alcohol dehydrogenase from Pichia sp. NRRL Y-11,328; experiment: Substrate specificity, electron acceptor and stoichiometry of purified yeast SADH; format: biochemical; details: examined spectrophotometrically
[8] = tested on: cell extract of Pichia sp. NRRL-Y-11,328; experiment: Oxidation of secondary alcohols to methylketone by cell extracts of yeasts; format: biochemical; details: methanol-grown; cell extract + NAD^+; sec. alcohol to methyl ketone; gas chromatography
[9] = tested on: cell extract of Kloeckera sp. strain A2 NRRL-Y-11,420; experiment: as above; format: biochemical; details: methanol-grown; cell extract + NAD^+; sec. alcohol to methyl ketone; gas chromatography
[10] = tested on: Kloeckera sp. Strain A2 (NRRLY-11,420); experiment: Oxidation of sec-alcohols to ketones by cell suspensions of yeasts; format: cell-based; details: sec-alcohol to methyl ketone
[11] = tested on: Torulopsis sp. Strain A1 (NRRLY-11,419); experiment: as above; format: cell-based; details: sec-alcohol to methyl ketone
[12] = tested on: Methylosinus trichosporium CRL 15 NRRL B-11,202; experiment: Sec. alcohol oxidation by cell suspensions of methanol-grown cells; format: cell-based; details: sec. alcohol to methyl ketone
Text: (§1) In this example, the procedure of Example 1 was repeated except that a plurality of the methane-utilizing methylotrophic microorganisms of the invention were each aerobically grown in a methanol-containing nutrient medium instead of a methane-containing medium. The nutrients in the medium were the same as indicated in Example 1 except that 0.4% v/v methanol was used as the alcohol dehydrogenase enzyme inducer and major source of carbon and energy for growth. Following growth the cells were harvested and washed as described in Example 1. The resting cells of the induced methanol-grown methylotrophic microorganisms were then contacted with a […] under aerobic conditions in a buffered solution by the procedure described in Example 1.

[13] = tested on: Methylocystis parvus CRL 18 NRRL B-11,204; experiment: as above; format: cell-based; details: sec. alcohol to methyl ketone
Text: as §1

[14] = tested on: Methylobacterium organophilum CRL 26 NRRL B-11,222; experiment: as above; format: cell-based; details: sec. alcohol to methyl ketone
Text: as §1

[15] = tested on: Methylococcus capsulatus CRL M1 NRRL B-11,219; experiment: as above; format: cell-based; details: sec. alcohol to methyl ketone
Text: as §1

[16] = tested on: Methylobacter vinelandii CRL M5Y NRRL B-11,218; experiment: as above; format: cell-based; details: sec. alcohol to methyl ketone
Text: as §1

[17] = tested on: Methylobacter chroococcum CRL M6 NRRL B-11,214; experiment: as above; format: cell-based; details: sec. alcohol to methyl ketone
Text: as §1

[18] = tested on: Methylomonas methanica CRL M4P NRRL B-11,205; experiment: as above; format: cell-based; details: sec. alcohol to methyl ketone
Text: as §1

[19] = tested on: Methylobacterium organophilum (CRL 26 R6) NRRL B-11,222; experiment: Oxidation by washed cell suspensions of methane-grown cells; format: cell-based
Method: (§2) The pH of the nutrient medium was adjusted to 7.0 by the addition of acid or base and 50 ml samples of the nutrient medium were charged into a plurality of 300 ml shaker flasks. The shaker flasks were inoculated with an inoculating loop of cells from an agar plate containing homogeneous colonies of the microorganisms on the plate (the purity of the isolates was confirmed by microscopic examination. The isolates had been maintained on agar plates under an atmosphere of methane and air having a 1:1 v/v gas ratio which had been transferred evey two weeks. The gaseous phase of the inoculated flasks was then replaced with a gas mixture comprised of methane and air having a ratio of 1:1 on a v/v basis. The inoculated flasks were sealed air tight and were incubated on a rotary shaker of orbital radius 2.5 cm at 250 rpm and at 30° C. for two days until turbidity in the medium had developed.
(§3) The cells were harvested by centrifugation at 10,000×g. at 4° C. for 30 minutes. The cell pellet was washed twice with a 0.15 M phosphate buffer at a pH of 7.0 (containing 0.002 M MgCl2). The washed cells were then suspended in a 0.15 M phosphate buffer at pH 7.0.
(§4) A 0.5 ml sample of each washed cell suspension (2 mg cells) was put into 10 ml vials at 4° C. which were sealed with a rubber cap. The gaseous phase of the vials was removed with vacuum and then was replaced with a gas mixture of the oxidative substrate (e.g., methane) and oxygen at a 1:1 v/v ratio. The vials were then incubated at 30 ° C. on a rotary shaker at 300 rpm. Samples of product (3 μl) were withdrawn periodically with a microsyringe and the products were analyzed by gas chromatography (ionization flame detector column).
(§5) The newly discovered and isolated microorganism strains of the present invention were each grown aerobically in the presence of methane in the manner described above. The methane-grown microbial cells were then washed, recovered and put to use in oxidizing an oxidative substrate by the procedure described above except in the case of a liquid substrate 10 μl of the substrate were used.

[20] = tested on: Methylobacter chroococcum (CRL 23 PM8) NRRL B-11,215; experiment: as above; format: cell-based
Method: as §2, §3, §4, §5

[21] = tested on: Methylobacter bovis (CRL 19 PM5) NRRL B-11,217; experiment: as above; format: cell-based
Method: as §2, §3, §4, §5

[22] = tested on: Methylomonas albus (CRL M8Y) NRRL B-11,207; experiment: as above; format: cell-based
Method: as §2, §3, §4, §5

[23] = tested on: Methylosinus trichosporium (CRL 15 PM1) NRRL B-11,202; experiment: as above; format: cell-based
Method: as §2, §3, §4, §5

[24] = tested on: Methylococcus minimus (CRL 24 PM12) NRRL B-11,220; experiment: as above; format: cell-based
Method: as §2, §3, §4, §5

[25] = tested on: Methylomonas agile (CRL 22 PM9) NRRL B-11,209; experiment: as above; format: cell-based
Method: as §2, §3, §4, §5

[26] = tested on: Methylomonas streptobacterium (CRL 17 PM3) NRRL B-11,208; experiment: as above; format: cell-based
Method: as §2, §3, §4, §5

[27] = tested on: Methylobacter vinelandii (CRL M5Y) NRRL B-11,218; experiment: as above; format: cell-based; details: for Conversion Rate: methane-grown cells, n-pentane to 2-pentanone, n-hexane to 2-hexanone
Method: as §2, §3, §4, §5

[28] = tested on: Methylomonas methanica (CRL M4P) NRRL B-11,205; experiment: as above; format: cell-based
Method: as §2, §3, §4, §5

[29] = tested on: Methylococcus capsulatus (CRL 25 PM13) NRRL B-11,221; experiment: as above; format: cell-based
Method: as §2, §3, §4, §5

[30] = tested on: Methylobacter chroococcum (CRL M6) NRRL B-11,214; experiment: as above; format: cell-based
Method: as §2, §3, §4, §5

[31] = tested on: Methylosinus sporium (CRL 16 PM2) NRRL B-11,203; experiment: as above; format: cell-based
Method: as §2, §3, §4, §5

[32] = tested on: Methylococcus capsulatus (CRL M1) NRRL B-11,219; experiment: as above; format: cell-based
Method: as §2, §3, §4, §5

[33] = tested on: Methylomonas rosaceus (CRL M10P) NRRL B-11,212; format: cell-based
Method: as §2, §3, §4, §5

[34] = tested on: Methylobacter bovis (CRL M1Y) NRRL B-11,216; experiment: Oxidation by washed cell suspensions of methane-grown cells; format: cell-based
Method: as §2, with “The inoculated flasks were sealed air tight and were incubated on a rotary shaker of orbital radius 2.5 cm at 250 rpm and at 30° C. for two days until turbidity in the medium had developed.” left out
as §3, §4, §5

[35] = tested on: Methylococcus capsulatus (Texas, ATCC 19,069); experiment: Oxidation by cell suspensions of methane-grown cells; format: cell-based; details: growth substrate Methane; n-alkane to secondary alcohol
Method: as §2, §3, §4
(§6) The conditions for preparing the cell suspensions or the cell-free particulate fractions from methane-grown methylotroph microorganisms is the same as described above.

[36] = tested on: Methylosinus trichosporium OB3b (NRRL B-11,196); experiment: as above; format: cell-based; details: growth substrate Methane; n-alkane to secondary alcohol
Method: as §2, §3, §4, §6

[37] = tested on: Methylomonas methanica (CRL 21 PM7) NRRL B-11,206; experiment: Oxidation by washed cell suspensions of methane-grown cells; format: cell-based; details: methane-grown cells; n-pentane to 2-pentanone, n-hexane to 2-hexanone
Method: as §2, §3, §4, §5

[38] = methane-grown cells, n-pentane to 2-pentanone, n-hexane to 2-hexanone

oxidation by the purified enzyme [7]: catalyzed the oxidation
SMILES: CCCCC(C)O (centres unmarked) [2-Hexanol]
Conversion Rate [1]: 0.45 μmoles/hr/mg Protein
Conversion Rate ([2]; growth substrate Ethanol): 0.54 μmoles/hr/mg of protein
Conversion Rate ([2]; growth substrate Methanol): 0.72 μmoles/hr/mg of protein
Conversion Rate ([2]; growth substrate Methylamine): 0.62 μmoles/hr/mg of protein
Conversion Rate ([2]; growth substrate Methylformate): 0.70 μmoles/hr/mg of protein
Conversion Rate ([2]; growth substrate Propylamine): 0.48 μmoles/hr/mg of protein
Conversion Rate ([3]; growth substrate Ethanol): 0.28 μmoles/hr/mg of protein
Conversion Rate ([3]; growth substrate Methanol): 0.50 μmoles/hr/mg of protein
Conversion Rate ([3]; growth substrate Methylamine): 0.31 μmoles/hr/mg of protein
Conversion Rate ([3]; growth substrate Methylformate): 0.48 μmoles/hr/mg of protein
Conversion Rate ([3]; growth substrate Propylamine): 0.21 μmoles/hr/mg of protein
Conversion Rate [4]: 0.21 μmoles/hr/mg Protein
Conversion Rate ([5]; growth substrate Ethanol): 0.72 μmoles/hr/mg of protein
Conversion Rate ([5]; growth substrate Methanol): 0.8 μmoles/hr/mg of protein
Conversion Rate ([5]; growth substrate Methylamine): 0.61 μmoles/hr/mg of protein
Conversion Rate ([5]; growth substrate Methylformate): 0.75 μmoles/hr/mg of protein
Conversion Rate ([5]; growth substrate Propylamine): 0.52 μmoles/hr/mg of protein
Conversion Rate [6]: 0.51 μmoles/hr/mg Protein
Conversion Rate [8]: 0.60 μmoles/hr/mg Protein
Conversion Rate [9]: 0.25 μmoles/hr/mg Protein
Conversion Rate ([10]; growth substrate Ethanol): 0.12 μmoles/hr/mg of protein
Conversion Rate ([10]; growth substrate Methanol): 0.25 μmoles/hr/mg of protein
Conversion Rate ([10]; growth substrate Methylamine): 0.10 μmoles/hr/mg of protein
Conversion Rate ([10]; growth substrate Methylformate): 0.28 μmoles/hr/mg of protein
Conversion Rate ([10]; growth substrate Propylamine): 0.11 μmoles/hr/mg of protein
Conversion Rate ([11]; growth substrate Ethanol): 0.20 μmoles/hr/mg of protein
Conversion Rate ([11]; growth substrate Methanol): 0.21 μmoles/hr/mg of protein
Conversion Rate ([11]; growth substrate Methylamine): 0.12 μmoles/hr/mg of protein
Conversion Rate ([11]; growth substrate Methylformate): 0.25 μmoles/hr/mg of protein
Conversion Rate ([11]; growth substrate Propylamine): 0.10 μmoles/hr/mg of protein
Conversion Rates [12]: 0.06 μmoles/hr/mg protein
Conversion Rates [13]: 0.05 μmoles/hr/mg protein
Conversion Rates [14]: 0.09 μmoles/hr/mg protein
Conversion Rates [15]: 0.08 μmoles/hr/mg protein
Conversion Rates [16]: 0.02 μmoles/hr/mg protein
Conversion Rates [17]: 0.02 μmoles/hr/mg protein
Conversion Rates [18]: 0.03 μmoles/hr/mg protein

SMILES: C=CCC [Butene-1]
Oxidative Conversion Rates [19]: 0.9
Oxidative Conversion Rates [20]: 0.82
Oxidative Conversion Rates [21]: 1.3
Oxidative Conversion Rates [22]: 1.8
Oxidative Conversion Rates [23]: 1.8
Oxidative Conversion Rates [24]: 1.5
Oxidative Conversion Rates [25]: 0.5
Oxidative Conversion Rates [26]: 2.5
Oxidative Conversion Rates ([27]; methane-grown washed cells, 30° C., methane to methanol, alkene to 1,2-epoxide): 0 μmole/hr/mg protein
Oxidative Conversion Rates [28]: 2.8
Oxidative Conversion Rates [29]: 1.9
Oxidative Conversion Rates [30]: 0.7
Oxidative Conversion Rates [31]: 1.2
Oxidative Conversion Rates [32]: 1.3
Oxidative Conversion Rates [33]: 3.1
Oxidative Conversion Rates [34]: 1.1

SMILES: CCCCCC [n-Hexane]
Conversion Rate [35]: 0.01 μmoles/hr/^5 mg. protein
Conversion Rate [36]: 0.01 μmoles/hr/^5 mg. protein
Conversion Rate [23]: 0.04
Conversion Rate [37]: 0.01 μmole/hr/mg protein
Conversion Rate [27]: 0.01 μmole/hr/mg protein
Conversion Rate [32]: 0.08

SMILES: CCCCC [n-Pentane]
Conversion Rate [35]: 0.032 μmoles/hr/^5 mg. protein
Conversion Rate [36]: 0.06 μmoles/hr/^5 mg. protein
Conversion Rate ([19]; growth substrate Methane, n-alkane to secondary alcohol): 0.01 μmoles/hr/^5 mg. protein
Conversion Rate [19, 38]: 0.18 μmole/hr/mg protein
Conversion Rate [23, 38]: 0.08 μmole/hr/mg protein
Conversion Rate [37]: 0.06 μmole/hr/mg protein
Conversion Rate [27]: 0.04 μmole/hr/mg protein
Conversion Rate [32, 38]: 0.15 μmole/hr/mg protein
